# From US12344618B2, “Heterotricyclic derivative compound and use of same” (HANMI PHARMACEUTICAL CO., LTD., priority 2019, dated 2025)
# Read-outs that look alike come from different tables or passages of the source.
# Assays:
# EZH2 = EZH2 (Homo sapiens, UniProt Q15910); assay: Inhibitory activity against EZH2 methyltransferase (radiometric scintillation proximity assay); details: Enzyme inhibitory activity (IC50, nM) EZH2, 2.3 nmol/L enzyme, 90 minutes, room temperature;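 further: Read-out is substrate peptide methylation, captured on streptavidin-coated SPA beads and counted by scintillation, with the reaction run in Tris-HCl buffer at pH 8.0 containing 1% DMSO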
# EZH2, sequence (Q15910 whole entry): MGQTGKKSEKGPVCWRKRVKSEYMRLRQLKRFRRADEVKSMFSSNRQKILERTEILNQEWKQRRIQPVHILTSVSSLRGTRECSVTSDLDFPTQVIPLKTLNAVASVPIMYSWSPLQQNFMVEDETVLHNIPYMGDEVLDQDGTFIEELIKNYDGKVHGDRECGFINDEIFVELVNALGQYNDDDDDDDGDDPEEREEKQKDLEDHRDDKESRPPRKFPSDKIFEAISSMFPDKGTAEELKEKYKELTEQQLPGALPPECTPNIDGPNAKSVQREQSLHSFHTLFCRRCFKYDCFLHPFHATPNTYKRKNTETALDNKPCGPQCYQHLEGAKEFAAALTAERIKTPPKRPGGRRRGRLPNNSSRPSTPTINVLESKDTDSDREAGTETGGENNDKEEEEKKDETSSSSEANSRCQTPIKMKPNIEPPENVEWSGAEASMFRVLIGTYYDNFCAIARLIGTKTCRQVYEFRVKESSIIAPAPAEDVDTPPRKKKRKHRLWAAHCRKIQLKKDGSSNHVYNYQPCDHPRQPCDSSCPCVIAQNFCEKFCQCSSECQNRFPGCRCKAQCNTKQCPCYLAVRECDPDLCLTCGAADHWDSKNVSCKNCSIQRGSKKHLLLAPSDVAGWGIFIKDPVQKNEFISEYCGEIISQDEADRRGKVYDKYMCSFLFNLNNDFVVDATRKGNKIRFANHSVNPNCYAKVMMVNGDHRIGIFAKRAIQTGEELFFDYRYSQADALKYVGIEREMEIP
# EZH2, sequence (O75530 whole entry partner): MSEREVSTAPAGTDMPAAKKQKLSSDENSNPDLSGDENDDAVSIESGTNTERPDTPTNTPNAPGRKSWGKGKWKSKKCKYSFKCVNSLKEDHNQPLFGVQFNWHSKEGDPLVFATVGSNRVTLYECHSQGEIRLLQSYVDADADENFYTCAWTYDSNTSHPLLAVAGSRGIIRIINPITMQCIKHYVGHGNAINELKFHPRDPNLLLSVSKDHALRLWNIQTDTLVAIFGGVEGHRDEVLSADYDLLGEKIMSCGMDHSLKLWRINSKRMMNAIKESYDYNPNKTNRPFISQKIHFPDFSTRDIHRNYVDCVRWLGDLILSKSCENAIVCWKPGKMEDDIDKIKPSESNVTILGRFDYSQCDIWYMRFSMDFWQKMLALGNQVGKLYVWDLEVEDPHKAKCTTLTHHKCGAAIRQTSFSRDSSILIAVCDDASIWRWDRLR
# EZH2, sequence (Q15022 whole entry partner): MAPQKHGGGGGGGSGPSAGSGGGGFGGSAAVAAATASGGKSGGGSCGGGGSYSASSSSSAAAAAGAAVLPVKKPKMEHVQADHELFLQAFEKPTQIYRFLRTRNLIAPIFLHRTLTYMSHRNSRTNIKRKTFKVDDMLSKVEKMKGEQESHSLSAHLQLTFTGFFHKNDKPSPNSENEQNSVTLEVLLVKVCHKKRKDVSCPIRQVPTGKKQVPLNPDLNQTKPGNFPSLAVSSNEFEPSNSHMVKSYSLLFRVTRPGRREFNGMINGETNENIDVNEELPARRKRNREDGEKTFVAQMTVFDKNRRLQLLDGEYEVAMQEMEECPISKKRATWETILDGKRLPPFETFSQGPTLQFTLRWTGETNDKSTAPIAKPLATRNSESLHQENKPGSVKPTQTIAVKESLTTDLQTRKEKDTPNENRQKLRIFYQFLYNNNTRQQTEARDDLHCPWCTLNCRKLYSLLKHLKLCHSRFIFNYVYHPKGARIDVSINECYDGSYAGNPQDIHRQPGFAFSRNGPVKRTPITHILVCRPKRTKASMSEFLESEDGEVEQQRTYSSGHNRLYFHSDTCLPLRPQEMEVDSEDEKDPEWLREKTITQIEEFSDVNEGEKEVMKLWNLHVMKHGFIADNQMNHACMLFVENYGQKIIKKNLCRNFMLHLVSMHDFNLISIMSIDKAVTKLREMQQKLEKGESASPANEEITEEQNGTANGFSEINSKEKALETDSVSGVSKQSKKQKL
# EZH2, sequence (Q09028 whole entry partner): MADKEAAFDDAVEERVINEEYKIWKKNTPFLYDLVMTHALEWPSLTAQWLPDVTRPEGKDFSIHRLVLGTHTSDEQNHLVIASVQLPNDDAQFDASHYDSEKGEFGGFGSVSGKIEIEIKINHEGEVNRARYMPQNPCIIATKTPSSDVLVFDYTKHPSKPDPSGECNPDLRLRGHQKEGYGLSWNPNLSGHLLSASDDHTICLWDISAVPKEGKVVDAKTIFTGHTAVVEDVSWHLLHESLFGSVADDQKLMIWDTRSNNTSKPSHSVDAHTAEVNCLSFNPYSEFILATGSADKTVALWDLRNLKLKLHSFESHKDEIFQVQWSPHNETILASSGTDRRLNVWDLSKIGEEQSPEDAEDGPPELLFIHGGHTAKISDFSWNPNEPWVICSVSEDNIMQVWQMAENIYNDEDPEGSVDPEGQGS
# EZH2, sequence (Q6ZN18 whole entry partner): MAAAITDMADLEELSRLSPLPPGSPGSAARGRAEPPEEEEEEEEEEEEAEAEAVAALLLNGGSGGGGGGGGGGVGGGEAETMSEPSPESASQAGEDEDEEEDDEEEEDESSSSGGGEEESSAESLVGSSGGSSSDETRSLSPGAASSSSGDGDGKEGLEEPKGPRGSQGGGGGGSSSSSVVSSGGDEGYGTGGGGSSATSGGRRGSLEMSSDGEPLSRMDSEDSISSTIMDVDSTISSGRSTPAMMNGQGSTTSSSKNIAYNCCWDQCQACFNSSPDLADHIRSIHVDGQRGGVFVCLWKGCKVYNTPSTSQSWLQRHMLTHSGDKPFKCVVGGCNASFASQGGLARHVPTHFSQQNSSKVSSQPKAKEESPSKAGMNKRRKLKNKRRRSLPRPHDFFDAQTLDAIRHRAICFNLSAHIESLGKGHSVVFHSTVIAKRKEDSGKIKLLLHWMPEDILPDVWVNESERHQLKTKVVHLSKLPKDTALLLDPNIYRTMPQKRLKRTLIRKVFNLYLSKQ
# Experimental: (§4) The inhibitory activities of the synthetic compounds against EZH1 or EZH2 methyltransferase were measured. The experiment was conducted by Reaction Biology Corp., and the activity of EZH1 or EZH2 was measured using a radiometric scintillation proximity assay. […] The reaction buffer consisted of 50 mmol/L Tris-HCl (pH 8.0), 50 mmol/L NaCl, 1 mmol/L EDTA, 1 mmoL/L DTT, 1 mmol/L PMSF, and 1% DMSO. Trichloroacetic acid was added to terminate the reaction, and PVT streptavidin-coated SPA beads were added to each reaction solution, followed by further reaction at room temperature for 1 hour again. The methylation value of the substrate peptide was measured using the TopCount NXT plate reader.
# EZH1 = molecular target: T1, EZH1 (Homo sapiens, UniProt Q92800); assay: Inhibitory activity against EZH1 methyltransferase (radiometric scintillation proximity assay); assay type: biochemical; details: 2.3 nmol/L enzyme, 90 minutes, room temperature;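 further: Read-out is methylation of a substrate peptide, captured on streptavidin-coated SPA beads and counted by scintillation, in Tris-HCl buffer at pH 8.0 with 1% DMSO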
# T1 construct: purchased Reaction Biology Corp. (contract assay)
# T1 sequence (Q92800 whole entry): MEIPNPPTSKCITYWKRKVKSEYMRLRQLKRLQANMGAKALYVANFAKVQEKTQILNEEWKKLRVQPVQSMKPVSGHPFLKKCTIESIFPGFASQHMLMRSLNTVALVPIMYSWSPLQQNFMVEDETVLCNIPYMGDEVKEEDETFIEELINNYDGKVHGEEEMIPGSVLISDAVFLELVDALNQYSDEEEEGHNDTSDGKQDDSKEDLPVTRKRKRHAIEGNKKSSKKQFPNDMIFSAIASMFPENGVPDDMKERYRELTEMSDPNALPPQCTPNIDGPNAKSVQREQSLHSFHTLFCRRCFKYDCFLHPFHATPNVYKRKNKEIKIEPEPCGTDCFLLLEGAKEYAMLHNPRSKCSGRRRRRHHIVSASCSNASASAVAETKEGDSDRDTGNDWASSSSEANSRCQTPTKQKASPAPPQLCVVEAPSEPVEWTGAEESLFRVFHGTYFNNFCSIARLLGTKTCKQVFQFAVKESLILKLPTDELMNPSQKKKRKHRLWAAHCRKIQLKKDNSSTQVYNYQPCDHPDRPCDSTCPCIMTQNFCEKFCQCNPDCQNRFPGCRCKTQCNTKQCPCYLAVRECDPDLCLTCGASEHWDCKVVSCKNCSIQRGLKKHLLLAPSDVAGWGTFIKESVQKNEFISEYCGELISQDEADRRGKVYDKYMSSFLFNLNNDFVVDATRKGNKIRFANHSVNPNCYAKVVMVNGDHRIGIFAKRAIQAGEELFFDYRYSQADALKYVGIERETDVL
# T1 sequence (O75530 whole entry partner): as the sequence (O75530 whole entry partner) above
# T1 sequence (Q15022 whole entry partner): as the sequence (Q15022 whole entry partner) above
# T1 sequence (Q09028 whole entry partner): as the sequence (Q09028 whole entry partner) above
# T1 sequence (Q6ZN18 whole entry partner): as the sequence (Q6ZN18 whole entry partner) above
# Experimental: as §4
# [1] = Metabolic stability in mouse liver microsomes; assay type: in vitro ADME; details: 5 μM compound, 1 mg/mL mouse liver microsomes, 37° C., NADPH regenerating system
# Experimental: (§1) In order to confirm the metabolic stability of the synthetic compounds in the liver, 5 μM test compound and 1 mg/mL human, dog, rat or mouse liver microsomes were allowed to react with each other at 37° C. in the presence of the NADPH regenerating system for 1 hour. After 1 hour, the reaction was terminated and the supernatant obtained by centrifugation was analyzed by HPLC. With the peak value obtained as the analysis result, the residual amount (%) was calculated using the following equation through the peak value of the test compound after 1 hour of the reaction versus the peak value of the test compound at 0 min. Residual amount (%)=(peak value of test compound after 1 hour of reaction/peak value of test compound at 0 min)×100
# [2] = Metabolic stability in human liver microsomes; assay type: in vitro ADME; details: 5 μM compound, 1 mg/mL human liver microsomes, 37° C., NADPH regenerating system
# Experimental: as §1
# [3] = system: KARPAS-422 (EZH2 Y641N mutation); assay: Cell growth inhibition test, KARPAS-422; assay type: cell-based; details: KARPAS-422, culture time 7 days, read-out: Cell growth inhibitory activity (GI50, nM) KARPAS-422 (EZH2 Y641N mutation)
# [4] = system: Pfeiffer (EZH2 A677G mutation); assay: Cell growth inhibition test, Pfeiffer; assay type: cell-based; details: Homo sapiens, read-out: Cell growth inhibitory activity (GI50, nM) Pfeiffer (EZH2 A677G mutation)
# Experimental: (§2) Each type of the cultured cells was seeded in 6-well plates or 48-96 well plates, and subculture or medium replacement was performed every 3 to 4 days. Next, the cells were subcultured for a total of 7 to 14 days, and then seeded in 96-well plates. 3 to 5 days before the measurement of the effect, the cells were seeded in 96-well plates, and then the absorbance (Tz) on the day of seeding was measured. The absorbance after the reaction was measured by the plate reader device Synergy NeoAlpha (Biotek) using Cell-Titer-Glo Cell Viability Assay (Promega, G7573) according to the attached manual. Based on the absorbance (Tz) measured on the seeding day and the absorbance of each of the DMSO-treated group (C) and the sample-added group (Ti) measured on the day of effect determination, the percentage of cell proliferation inhibition was calculated according to the following Equation 1. [(Ti−Tz)/(C−Tz)]×100 for concentrations for which Ti≥Tz […] for concentrations for which Ti<Tz. [Equation 1]
# [5] = Mouse pharmacokinetics, oral single dose; assay type: in vivo; details: plasma, mice (ICR, male), oral single dose 30 mg/kg; for AUC / half-life: male, ICR, mouse, po, 30 mg/kg; for AUC: read-out: Area under oral curve (AUC); for half-life: read-out: Half life T1/2 (converted)
# Experimental: Pharmacokinetics of the synthetic compounds as EZH2 inhibitors in mice (ICR, 8-week-old, male) were tested.
# The oral administration group was maintained in a fasting state from the day before the test to 4 hours after administration of the test compound. On the day of administration of the test compound, the weight of each animal was measured and each synthetic compound was formulated using a selected solvent based on 30 mg/kg (10 mL/kg). Each test compound was administered orally in a single dose, a certain amount of the blood was taken at a predetermined time, plasma was isolated therefrom, and the concentration of each test compound in the plasma was analyzed using LC-MS/MS (Waters UPLC H-Class/Xevo TQ; Waters, USA). Pharmacokinetic coefficients were calculated by a linear-log trapezoidal summation formula using a non-compartment analysis of the Phoenix™ WinNonlin (Certara, USA) program through the plasma concentration curve over time.
# Mino = assay: Cell growth inhibition test, Mino; assay type: cell-based; details: Homo sapiens, 336 h, culture time 14 days, read-out: Cell growth inhibitory activity (GI50, nM) Mino
# Experimental: (§3) In order to confirm the inhibitory effects of the synthetic compounds against the growth of blood cancer cell lines, evaluation was performed against KARPAS 422, RPMI 8226, KMS-11, JeKo-1, MV-4-11, Mino, Pfeiffer, SU-DHL-4, and RS4; 11 cell lines. A test for the Pfeiffer and SU-DHL-4 cell lines was performed by KYinno Co., Ltd., a test for the RS4; 11 cell line was performed by Shanghai Chempartner Co., Ltd., and a test for the Kasumi-1, MV-4-11, MM.1S, KMS-11, JeKo-1, Mino (ATCC), RPMI 8226 (KCLB), and KARPAS 422 (ECACC) cell lines was performed after purchase.
# as §2, with “DMSO at a final concentration of 0.1% or less or a DMSO solution of each of the synthetic compounds was added to media to have the concentration and treatment time described in Table 5 below, and cells were cultured at 37° C. under 5% CO2. Each” for “Each”
# Kasumi-1 = assay: Cell growth inhibition test, Kasumi-1; assay type: cell-based; details: Homo sapiens, 240 h; Kasumi-1, culture time 10 days; read-out: Cell growth inhibitory activity (GI50, nM) Kasumi-1
# Experimental: as §3
# as §2, with “DMSO at a final concentration of 0.1% or less or a DMSO solution of each of the synthetic compounds was added to media to have the concentration and treatment time described in Table 5 below, and cells were cultured at 37° C. under 5% CO2. Each” for “Each”
# MM.1S = assay: Cell growth inhibition test, MM.1S; assay type: cell-based; details: Homo sapiens, MM1.S, 264 h, culture time 11 days, read-out: Cell growth inhibitory activity (GI50, nM) MM.1S
# Experimental: as §3
# as §2, with “DMSO at a final concentration of 0.1% or less or a DMSO solution of each of the synthetic compounds was added to media to have the concentration and treatment time described in Table 5 below, and cells were cultured at 37° C. under 5% CO2. Each” for “Each”
# MV4-11 = assay: Cell growth inhibition test, MV4-11; assay type: cell-based; details: Homo sapiens, 240 h; MV4-11, culture time 10 days; read-out: Cell growth inhibitory activity (GI50, nM) MV4-11
# Experimental: as §3
# as §2, with “DMSO at a final concentration of 0.1% or less or a DMSO solution of each of the synthetic compounds was added to media to have the concentration and treatment time described in Table 5 below, and cells were cultured at 37° C. under 5% CO2. Each” for “Each”
# [6] = Metabolic stability in dog liver microsomes; assay type: in vitro ADME; details: 5 μM compound, 1 mg/mL dog liver microsomes, 37° C., NADPH regenerating system
# Experimental: as §1
# JeKo-1 = assay: Cell growth inhibition test, JeKo-1; assay type: cell-based; details: Homo sapiens, 240 h; JeKo-1, culture time 10 days; read-out: Cell growth inhibitory activity (GI50, nM) JeKo-1
# Experimental: as §3
# as §2, with “DMSO at a final concentration of 0.1% or less or a DMSO solution of each of the synthetic compounds was added to media to have the concentration and treatment time described in Table 5 below, and cells were cultured at 37° C. under 5% CO2. Each” for “Each”
# RS4;11 = assay: Cell growth inhibition test, RS4;11; assay type: cell-based; details: Homo sapiens, read-out: Cell growth inhibitory activity (GI50, nM) RS4;11
# Experimental: as §3
# as §2, with “DMSO at a final concentration of 0.1% or less or a DMSO solution of each of the synthetic compounds was added to media to have the concentration and treatment time described in Table 5 below, and cells were cultured at 37° C. under 5% CO2. Each” for “Each”
# KMS-11 = assay: Cell growth inhibition test, KMS-11; assay type: cell-based; details: Homo sapiens, 240 h; KMS-11, culture time 10 days; read-out: Cell growth inhibitory activity (GI50, nM) KMS-11
# Experimental: as §3
# as §2, with “DMSO at a final concentration of 0.1% or less or a DMSO solution of each of the synthetic compounds was added to media to have the concentration and treatment time described in Table 5 below, and cells were cultured at 37° C. under 5% CO2. Each” for “Each”
# RPMI8226 = assay: Cell growth inhibition test, RPMI8226; assay type: cell-based; details: Homo sapiens, RPMI-8226, 168 h; RPMI8226, culture time 7 days; read-out: Cell growth inhibitory activity (GI50, nM) RPMI8226
# Experimental: as §3
# as §2, with “DMSO at a final concentration of 0.1% or less or a DMSO solution of each of the synthetic compounds was added to media to have the concentration and treatment time described in Table 5 below, and cells were cultured at 37° C. under 5% CO2. Each” for “Each”
# SU-DHL-4 = assay: Cell growth inhibition test, SU-DHL-4; assay type: cell-based; details: Homo sapiens, read-out: Cell growth inhibitory activity (GI50, nM) SU-DHL-4
# Experimental: as §3
# as §2, with “DMSO at a final concentration of 0.1% or less or a DMSO solution of each of the synthetic compounds was added to media to have the concentration and treatment time described in Table 5 below, and cells were cultured at 37° C. under 5% CO2. Each” for “Each”
# [7] = Metabolic stability in rat liver microsomes; assay type: in vitro ADME; details: 5 μM compound, 1 mg/mL rat liver microsomes, 37° C., NADPH regenerating system
# Experimental: as §1
# [8] = Homo sapiens, KARPAS-422, 168 h
SMILES,IC50 (EZH2),IC50 (EZH1),"Residual amount (%) of test compound after 1 hour of reaction, Mouse [1]","Residual amount (%) of test compound after 1 hour of reaction, Human [2]","GI50 [3, 8]",GI50 [4],AUC [5],GI50 (Mino),GI50 (Kasumi-1),GI50 (MM.1S),GI50 (MV4-11),"Residual amount (%) of test compound after 1 hour of reaction, Dog [6]",GI50 (JeKo-1),GI50 (RS4;11),GI50 (KMS-11),GI50 (RPMI8226),GI50 (SU-DHL-4),half-life [5],other results
"Cc1cc(C)c(CN2CCc3c(Cl)c4c(c(C)c3C2=O)OC(C)([C@H]2CC[C@H](N(C)C)CC2)O4)c(=O)[nH]1 (mixture of isomers) [Compound 9, 9-chloro-6-((4,6-dimethyl-2-oxo-1,2-dihydropyridin-3-yl)methyl)-2-(trans-4-(dimethylamino)cyclohexyl)-2,4-dimethyl-7,8-dihydro-[1,3]dioxolo[4,5-g]isoquinolin-5(6H)-one]",1.5 to 5 nM,16 to 43 nM,56%,57%,2 to 15 nM,0.97 nM,14900 to 16400 ng·h/mL,–,–,–,–,–,–,–,–,–,–,–,Half life T1/2 [5]: 2.4~2.3 hr
"Cc1cc(C)c(CN2CCc3c(Br)c4c(c(C)c3C2=O)OC(C)([C@H]2CC[C@H](N(C)C)CC2)O4)c(=O)[nH]1 (single isomer, unassigned) [Compound 49, 9-bromo-6-((4,6-dimethyl-2-oxo-1,2-dihydropyridin-3-yl)methyl)-2-(trans-4-(dimethylamino)cyclohexyl)-2,4-dimethyl-7,8-dihydro-[1,3]dioxolo[4,5-g]isoquinolin-5(6H)-one]",–,–,52%,67%,–,0.21 nM,9960 ng·h/mL,2 nM,51 nM,1.4 nM,3.9 nM,74%,42 nM,24 nM,8.1 nM,6.4 nM,11 nM,2.9 h,"GI50 [3]: 1.2 to 9.7 nM; Residual amount (%) of test compound after 1 hour of reaction, Rat [7]: 84%"
"COc1cc(C)[nH]c(=O)c1CN1CCc2c(Cl)c3c(c(C)c2C1=O)OC(C)([C@H]1CC[C@H](N(C)C)CC1)O3 (stereo partly drawn) [Compound 13, 9-chloro-2-(trans-4-(dimethylamino)cyclohexyl)-6-((4-methoxy-6-methyl-2-oxo-1,2-dihydropyridin-3-yl)methyl)-2,4-dimethyl-7,8-dihydro-[1,3]dioxolo[4,5-g]isoquinolin-5(6H)-one]",1.8 to 2.3 nM,23 to 35 nM,79%,82%,1.8 to 9.6 nM,0.27 nM,1040 ng·h/mL,–,–,–,–,–,–,–,–,–,–,–,–
"Cc1cc(C)c(CN2CCc3c(C)c4c(c(C)c3C2=O)OC(C)([C@H]2CC[C@H](N(C)C)CC2)O4)c(=O)[nH]1 (stereo partly drawn) [Compound 39, 6-((4,6-dimethyl-2-oxo-1,2-dihydropyridin-3-yl)methyl)-2-(trans-4-(dimethylamino)cyclohexyl)-2,4,9-trimethyl-7,8-dihydro-[1,3]dioxolo[4,5-g]isoquinolin-5(6H)-one]",1.2 to 6.2 nM,9.7 to 30 nM,80%,62%,3.2 to 8.4 nM,0.76 to 0.99 nM,3650 ng·h/mL,–,–,–,–,–,–,–,–,–,–,–,–
"CCN(c1cc(-c2ccc(CN3CCOCC3)cc2)cc(C(=O)NCc2c(C)cc(C)[nH]c2=O)c1C)C1CCOCC1 [Control A, N-((4,6-dimethyl-2-oxo-1,2-dihydropyridin-3-yl)methyl)-5-(ethyl(tetrahydro-2H-pyran-4-yl)amino)-4-methyl-4′-(morpholinomethyl)-[1,1′-biphenyl]-3-carboxamide]",–,–,–,–,–,–,4880 ng·h/mL,225 nM,> 1000 nM,204 nM,220 nM,14%,3580 nM,932 nM,554 nM,315 nM,281 nM,0.6 h,–
